How the values were obtained:
[1] = test system: EBOV-GFP (recombinant Ebolavirus encoding a GFP reporter gene); experiment: microbe, parasite or virus in culture; assay type: cell-based; settings: for IC50: Orthoebolavirus
[2] = Cytotoxicity, CellTiter-Glo Luminescent Cell Viability Assay; settings: human, Huh7 cells

Row | SMILES | antiviral activity / potency in words [1] | IC50 ([1]; Huh-7, 24 h) [nM] | fold potency relative to amodiaquine [1] [fold] | Selectivity index [1] | IC50 ([1]; Huh-7) [nM] | CC50 at 24 h [2] [nM]
1 | C#CCN(CC#C)Cc1cc(Nc2ccnc3cc(Cl)ccc23)ccc1O [Compound 1, 4-(7-chloroquinolin-4-ylamino)-2-bis(2-propyne-1-yl)aminomethylphenol] | reduced antiviral activity | 5780 ± 1490 |  |  |  | 
2 | CCN(CC)Cc1cc(Nc2ccnc3cc(C(F)(F)F)ccc23)ccc1O [Compound 2] |  | 5870 ± 1460 |  |  |  | 
3 | CN(Cc1cc(Nc2ccnc3cc(Cl)ccc23)ccc1O)c1ccccc1 [Compound 3] | reduced antiviral activity | 6390 ± 930 |  |  |  | 
4 | CCN(CC)Cc1cc(Nc2ccnc3cc(Br)ccc23)ccc1O [Compound 4, 4-(7-bromoquinolin-4-ylamino)-2-diethylamino-methylphenol] |  | 1550 ± 140 | 1.4 |  |  | 
5 | CCN(CC)Cc1cc(Nc2ccnc3cc(F)ccc23)ccc1O [Compound 5, 4-(7-fluoroquinolin-4-ylamino)-2-diethylaminomethylphenol] | weaker than amiodiaquine | 2780 ± 280 |  |  |  | 
6 | CCN(CC)Cc1cc(Nc2c3ccccc3nc3ccccc23)ccc1O [Compound 6, 4-(9-acridinylamino)-2-[(diethylamino)methyl]phenol] |  | 1640 ± 220 |  |  |  | 
7 | CC(C)N(C)Cc1cc(Nc2ccnc3cc(Cl)ccc23)ccc1O [Compound 8, 4-(7-chloroquinolin-4-ylamino)-2-(isopropylmethylamino)methylphenol] |  | 1460 ± 140 |  | 27 | 1460 | 39200
8 | CC(C)(C)NCc1cc(Nc2ccnc3cc(Cl)ccc23)ccc1O [Compound 9, 4-(7-chloroquinolin-4-ylamino)-2-tert-butylaminomethylphenol] |  | 1210 ± 90 |  | 22 | 1210 | 26100
9 | CN(C)Cc1cc(Nc2ccnc3cc(Cl)ccc23)ccc1O [Compound 10, 4-(7-chloroquinolin-4-ylamino)-2-dimethylaminomethylphenol] |  | 2140 ± 210 |  |  |  | 
10 | CCN(Cc1cc(Nc2ccnc3cc(Cl)ccc23)ccc1O)C(C)C [Compound 11, 4-(7-chloroquinolin-4-ylamino)-2-(ethylisopropylamino)methylphenol] |  | 1460 ± 150 |  | 41 | 1460 | 60500
11 | CCN(CC)Cc1cc(Nc2ccnc3ccccc23)ccc1O [Compound 12, 2-[(diethylamino)methyl]-4-(quinolin-4-ylamino)phenol] |  | 2140 ± 180 |  |  |  | 
12 | CN1CCN(Cc2cc(Nc3ccnc4cc(Cl)ccc34)ccc2O)CC1 [Compound 13, 4-(7-chloroquinolin-4-ylamino)-2-(4-methyl-1-piperazinyl)methylphenol] | did not decrease potency | 1680 ± 190 |  |  |  | 
13 | CCCN(C)Cc1cc(Nc2ccnc3cc(Cl)ccc23)ccc1O [Compound 14, 4-(7-chloroquinolin-4-ylamino)-2-(methylpropylamino)methylphenol] |  | 1220 ± 110 |  | >82 | 1220 | > 100000
14 | CN(Cc1cc(Nc2ccnc3cc(Cl)ccc23)ccc1O)C(C)(C)C [Compound 15, 4-(7-chloroquinolin-4-ylamino)-2-(tert-butylmethylamino)methylphenol] |  | 1280 ± 70 |  | 33 | 1280 | 41800
15 | CCN(C)Cc1cc(Nc2ccnc3cc(Cl)ccc23)ccc1O [Compound 16, 4-(7-chloroquinolin-4-ylamino)-2-(ethylmethylamino)methylphenol] |  | 2080 ± 220 |  |  |  | 
16 | CCN(CCO)Cc1cc(Nc2ccnc3cc(Cl)ccc23)ccc1O [Compound 17, 4-(7-chloroquinolin-4-ylamino)-2-[ethyl(2-hydroxyethyl)amino]methylphenol] | did not decrease potency | 1770 ± 180 |  |  |  | 
17 | Oc1ccc(Nc2ccnc3cc(Cl)ccc23)cc1CN1CCCC(O)C1 (stereo not drawn) [Compound 19, 4-(7-chloroquinolin-4-ylamino)-2-(3-hydroxy-1-piperidinyl)methylphenol] | did not decrease potency | 1800 ± 280 |  |  |  | 
18 | CCN(CC)Cc1cc(Nc2ccnc3cc(Cl)ccc23)cc(-c2ccc(Cl)cc2)c1O [Compound 20, 6-(4-chlorophenyl)-4-(7-chloroquinolin-4-ylamino)-2-diethylaminomethylphenol] |  | 1310 ± 100 | 1.6 | 15 | 1310 | 19500
19 | Oc1ccc(Nc2ccnc3cc(Cl)ccc23)cc1CN1CCCC1 [Compound 21, 4-(7-chloroquinolin-4-ylamino)-2-pyrrolidinylmethylphenol] |  | 1090 |  | 30 | 1090 | 33200
20 | Oc1ccc(Nc2ccnc3cc(Cl)ccc23)cc1CN1CC[C@@H](O)C1 [Compound 22] | did not decrease potency | 1730 ± 90 |  |  |  | 

Row | SMILES | antiviral activity / potency in words [1] | IC50 ([1]; Huh-7, 24 h) [nM] | fold potency relative to amodiaquine [1] [fold] | Selectivity index [1] | IC50 ([1]; Huh-7) [nM] | CC50 at 24 h [2] [nM]
21 | CCCCCCNCc1cc(Nc2ccnc3cc(Cl)ccc23)ccc1O [Compound 23, 4-(7-chloroquinolin-4-ylamino)-2-hexylaminomethylphenol] |  | 290 ± 30 |  | 18 | 290 | 5180
22 | Oc1ccc(Nc2ccnc3cc(Cl)ccc23)cc1CN1CCOCC1 [Compound 24] |  | 6030 ± 410 |  |  |  | 
23 | CCCCN(C)Cc1cc(Nc2ccnc3cc(Cl)ccc23)ccc1O [Compound 25, 4-(7-chloroquinolin-4-ylamino)-2-(butylmethylamino)methylphenol] |  | 860 ± 80 |  | 77 | 860 | 65900
24 | CCCN(CCC)Cc1cc(Nc2ccnc3cc(Cl)ccc23)ccc1O [Compound 26, 4-(7-chloroquinolin-4-ylamino)-2-dipropylaminomethylphenol] |  | 940 ± 80 |  | >106 | 940 | > 100000
25 | C=CCN(CC=C)Cc1cc(Nc2ccnc3cc(Cl)ccc23)ccc1O [Compound 27, 4-(7-chloroquinolin-4-ylamino)-2-bis(2-propen-1-yl)aminomethylphenol] |  | 2320 ± 320 |  |  |  | 
26 | CCCN(CC)Cc1cc(Nc2ccnc3cc(Cl)ccc23)ccc1O [Compound 29, 4-(7-chloroquinolin-4-ylamino)-2-(ethylpropylamino)methylphenol] |  | 1390 ± 130 |  | >72 | 1390 | > 100000
27 | CN(C)Cc1cc(Nc2ccnc3cc(I)ccc23)ccc1O [Compound 30, 4-(7-iodoquinolin-4-ylamino)-2-dimethylaminomethylphenol] |  | 690 ± 80 |  | >145 | 690 | > 100000
28 | CCN(C)Cc1cc(Nc2ccnc3cc(I)ccc23)ccc1O [Compound 31, 4-(7-iodoquinolin-4-ylamino)-2-ethylmethylaminomethylphenol] |  | 620 ± 60 |  | >161 | 620 | > 100000
29 | CC(C)N(C)Cc1cc(Nc2ccnc3cc(I)ccc23)ccc1O [Compound 32, 4-(7-iodoquinolin-4-ylamino)-2-isopropylmethylaminomethylphenol] |  | 290 ± 40 |  | 132 | 290 | 38400
30 | CN(Cc1cc(Nc2ccnc3cc(I)ccc23)ccc1O)C(C)(C)C [Compound 33, 4-(7-iodoquinolin-4-ylamino)-2-tert-butylmethylaminomethylphenol] |  | 300 ± 40 |  | 108 | 300 | 32300
31 | CCCN(C)Cc1cc(Nc2ccnc3cc(I)ccc23)ccc1O [Compound 34, 4-(7-iodoquinolin-4-ylamino)-2-methylpropylaminomethylphenol] |  | 430 ± 60 |  | >233 | 430 | > 100000
32 | CCCCN(C)Cc1cc(Nc2ccnc3cc(I)ccc23)ccc1O [Compound 35, 4-(7-iodoquinolin-4-ylamino)-2-butylmethylaminomethylphenol] |  | 440 ± 40 |  | 150 | 440 | 66100
33 | CCCCCN(C)Cc1cc(Nc2ccnc3cc(I)ccc23)ccc1O [Compound 36, 4-(7-iodoquinolin-4-ylamino)-2-methylpentylaminomethylphenol] |  | 370 ± 40 |  | >270 | 370 | > 100000
34 | CCCCCCN(C)Cc1cc(Nc2ccnc3cc(I)ccc23)ccc1O [Compound 37, 4-(7-iodoquinolin-4-ylamino)-2-hexylmethylaminomethylphenol] |  | 390 ± 20 |  | >256 | 390 | > 100000
35 | CCCCCCCCN(C)Cc1cc(Nc2ccnc3cc(I)ccc23)ccc1O [Compound 38, 4-(7-iodoquinolin-4-ylamino)-2-methyloctylaminomethylphenol] |  | 260 ± 60 |  | >385 | 260 | > 100000
36 | CCN(CCO)Cc1cc(Nc2ccnc3cc(I)ccc23)ccc1O [Compound 39, 4-(7-iodoquinolin-4-ylamino)-2-ethyl(2-hydroxyethyl)aminomethylphenol] |  | 410 ± 50 |  | >244 | 410 | > 100000
37 | CCCN(CC)Cc1cc(Nc2ccnc3cc(I)ccc23)ccc1O [Compound 40, 4-(7-iodoquinolin-4-ylamino)-2-ethylpropylaminomethylphenol] |  | 360 ± 40 |  | >278 | 360 | > 100000
38 | CCCCN(CC)Cc1cc(Nc2ccnc3cc(I)ccc23)ccc1O [Compound 41, 4-(7-iodoquinolin-4-ylamino)-2-ethylbutylaminomethylphenol] |  | 410 ± 40 |  | 147 | 410 | 60400
39 | Oc1ccc(Nc2ccnc3cc(I)ccc23)cc1CN1CCCC1 [Compound 42, 4-(7-iodoquinolin-4-ylamino)-2-(1-pyrrolidinylmethyl)phenol] |  | 660 ± 50 |  | 54 | 660 | 35300
